The results in this text go back to ChEMBL document CHEMBL2380232, “Triazole derivatives: a series of Darapladib analogues as orally active Lp-PLA2 inhibitors” (Bioorg Med Chem Lett, 2013).

Each structure is given as a SMILES string. Calls of active or inactive are those of the source. The calls are words filed in the database; no cut-off is given here.

The species entered for experiment [1] is Oryctolagus cuniculus. The note with it: Plasma, 10 nM.
Description: Inhibition of Lp-PLA2 in rabbit plasma using [3H]PAF as substrate at 10 nM incubated for 5 mins prior to substrate addition measured after 10 mins by liquid scintillation counting analysis relative to control
For experiment [2], the species on record is Oryctolagus cuniculus. The settings on record: Plasma, 100 nM.
Description: Inhibition of Lp-PLA2 in rabbit plasma using [3H]PAF as substrate at 100 nM incubated for 5 mins prior to substrate addition measured after 10 mins by liquid scintillation counting analysis relative to control
The species named for another experiment is Mus musculus. The note with it: C57, 50 mg/kg.

Description for Mus musculus: In vivo inhibition of Lp-PLA2 in C57 mouse serum using 2-thio-PAF as substrate at 50 mg/kg, po measured over 24 hrs

With `CN(C)[C@H]1CCN(Cc2nnc(Cn3c(SCc4ccc(F)cc4)nc(=O)c4c3CCC4)n2Cc2ccc(-c3ccc(C(F)(F)F)cc3)cc2)C1`, the inhibition in the experiment filed under Oryctolagus cuniculus [1] was 46%.

For the compound `CCN(CC)CCN(Cc1nnc(Cn2c(SCc3ccc(F)cc3)nc(=O)c3c2CCC3)n1Cc1ccc(-c2ccc(C(F)(F)F)cc2)cc1)C(C)C`, the inhibition in the experiment filed under Oryctolagus cuniculus [1] amounted to 33%; in the experiment listed under Oryctolagus cuniculus [2] it was 95%.

Turning to `CCN(CC)CCN(C)Cc1cnc(Cn2c(SCc3ccc(F)cc3)nc(=O)c3c2CCC3)n1Cc1ccc(-c2ccc(C(F)(F)F)cc2)cc1`, the inhibition in the experiment filed under Oryctolagus cuniculus [1] worked out at 54%; in the experiment filed under Oryctolagus cuniculus [2] it was 89%.

`CCN(CC)CCNCc1nnc(Cn2c(SCc3ccc(F)cc3)nc(=O)c3c2CCC3)n1Cc1ccc(-c2ccc(C(F)(F)F)cc2)cc1` displayed an inhibition in the experiment listed under Oryctolagus cuniculus [1] of 35%.

For `CN(C)[C@@H]1CCN(Cc2nnc(Cn3c(SCc4ccc(F)cc4)nc(=O)c4c3CCC4)n2Cc2ccc(-c3ccc(C(F)(F)F)cc3)cc2)C1`, the inhibition in the experiment filed under Oryctolagus cuniculus [1] worked out at 54%.

On to `CN(CCN1CCCC1)Cc1nnc(Cn2c(SCc3ccc(F)cc3)nc(=O)c3c2CCC3)n1Cc1ccc(-c2ccc(C(F)(F)F)cc2)cc1`, for which the inhibition in the experiment listed under Oryctolagus cuniculus [1] amounted to 76%; in the experiment listed under Oryctolagus cuniculus [2], 97%.

`O=c1nc(SCc2ccc(F)cc2)n(Cc2nnc(CNCCN3CCCC3)n2Cc2ccc(-c3ccc(C(F)(F)F)cc3)cc2)c2c1CCC2`: the inhibition in the experiment filed under Oryctolagus cuniculus [1] is 55%.

On to `CC(C)N(CCNCc1nnc(Cn2c(SCc3ccc(F)cc3)nc(=O)c3c2CCC3)n1Cc1ccc(-c2ccc(C(F)(F)F)cc2)cc1)C(C)C`, for which the inhibition in the experiment listed under Oryctolagus cuniculus [1] was determined as 41%.

For `CCN(CCN(C)C)Cc1nnc(Cn2c(SCc3ccc(F)cc3)nc(=O)c3c2CCC3)n1Cc1ccc(-c2ccc(C(F)(F)F)cc2)cc1`, in the experiment filed under Oryctolagus cuniculus [1], the inhibition was 75%.

`CN(CC(=O)O)Cc1nnc(Cn2c(SCc3ccc(F)cc3)nc(=O)c3c2CCC3)n1Cc1ccc(-c2ccc(C(F)(F)F)cc2)cc1`: the inhibition in the experiment listed under Oryctolagus cuniculus [1] was determined as 5%; in the experiment filed under Oryctolagus cuniculus [2], 74%.

`O=c1nc(SCc2ccc(F)cc2)n(Cc2nnc(CNCCN3CCOCC3)n2Cc2ccc(-c3ccc(C(F)(F)F)cc3)cc2)c2c1CCC2` came in with an inhibition in the experiment filed under Oryctolagus cuniculus [1] of 32%.

Turning to `COCCNCc1nnc(Cn2c(SCc3ccc(F)cc3)nc(=O)c3c2CCC3)n1Cc1ccc(-c2ccc(C(F)(F)F)cc2)cc1`, the inhibition in the experiment filed under Oryctolagus cuniculus [1] was found to be 13%.

In the case of `O=c1nc(SCc2ccc(F)cc2)n(Cc2nnc(CCCN3CCCCC3)n2Cc2ccc(-c3ccc(C(F)(F)F)cc3)cc2)c2c1CCC2`, the inhibition came to 76% in the experiment listed under Oryctolagus cuniculus [1] and 96% in the experiment filed under Oryctolagus cuniculus [2].

With `CN(CCN1CCCCC1)Cc1cnc(Cn2c(SCc3ccc(F)cc3)nc(=O)c3c2CCC3)n1Cc1ccc(-c2ccc(C(F)(F)F)cc2)cc1`, the inhibition in the experiment listed under Oryctolagus cuniculus [1] was determined as 54%; in the experiment listed under Oryctolagus cuniculus [2], 92%.

Take `CCN(CC)CCCCc1nnc(Cn2c(SCc3ccc(F)cc3)nc(=O)c3c2CCC3)n1Cc1ccc(-c2ccc(C(F)(F)F)cc2)cc1`: the inhibition result in the experiment filed under Mus musculus was “inactive”. For the same compound, the inhibition came to 74% in the experiment listed under Oryctolagus cuniculus [1] and 95% in the experiment filed under Oryctolagus cuniculus [2].

With `CCN(CC)CCN(C)C(C)c1nnc(Cn2c(SCc3ccc(F)cc3)nc(=O)c3c2CCC3)n1Cc1ccc(-c2ccc(C(F)(F)F)cc2)cc1` (configuration not stated), the inhibition result in the experiment filed under Mus musculus was “Active”. The same compound yielded an inhibition in the experiment filed under Oryctolagus cuniculus [1] of 76%.

`O=c1nc(SCc2ccc(F)cc2)n(Cc2nnc(CNCCN3CCCCC3)n2Cc2ccc(-c3ccc(C(F)(F)F)cc3)cc2)c2c1CCC2` gave an inhibition in the experiment listed under Oryctolagus cuniculus [1] of 33%.

Take `CN(CCN1CCCCC1)Cc1nnc(Cn2c(SCc3ccc(F)cc3)nc(=O)c3c2CCC3)n1Cc1ccc(-c2ccc(C(F)(F)F)cc2)cc1`: the inhibition result in the experiment listed under Mus musculus is “Active”. The inhibition in the experiment listed under Oryctolagus cuniculus [1] amounted to 75%; in the experiment listed under Oryctolagus cuniculus [2] it was 97%.

On to `CCN(CC)CCN(C)Cc1nnc(Cn2c(SCc3ccc(F)cc3)nc(=O)c3c2CCC3)n1Cc1ccc(-c2ccc(C(F)(F)F)cc2)cc1`, for which the inhibition result in the experiment filed under Mus musculus was “Active”. In the experiment listed under Oryctolagus cuniculus [1], this compound yielded an inhibition of 72%.

`CN(Cc1ccccn1)Cc1nnc(Cn2c(SCc3ccc(F)cc3)nc(=O)c3c2CCC3)n1Cc1ccc(-c2ccc(C(F)(F)F)cc2)cc1` yielded an inhibition in the experiment listed under Oryctolagus cuniculus [1] of 36%.

For the compound `CCN(CC)CCN(Cc1ccc(-c2ccc(C(F)(F)F)cc2)cc1)C(=O)Cn1c(SCc2ccc(F)cc2)nc(=O)c2c1CCC2`, the inhibition stood at 82% in the experiment listed under Oryctolagus cuniculus [1] and 99% in the experiment filed under Oryctolagus cuniculus [2].

On to `CN(C)CCCN(C)Cc1nnc(Cn2c(SCc3ccc(F)cc3)nc(=O)c3c2CCC3)n1Cc1ccc(-c2ccc(C(F)(F)F)cc2)cc1`, for which the inhibition in the experiment filed under Oryctolagus cuniculus [1] stood at 73%.

`CC(c1nnc(Cn2c(SCc3ccc(F)cc3)nc(=O)c3c2CCC3)n1Cc1ccc(-c2ccc(C(F)(F)F)cc2)cc1)N(C)CCN(C)C` (configuration not stated) yielded an inhibition in the experiment listed under Oryctolagus cuniculus [1] of 71%.

As for `CCN(CC)CCCc1nnc(Cn2c(SCc3ccc(F)cc3)nc(=O)c3c2CCC3)n1Cc1ccc(-c2ccc(C(F)(F)F)cc2)cc1`, the inhibition result in the experiment listed under Mus musculus was “inactive”. This compound also gave an inhibition in the experiment filed under Oryctolagus cuniculus [1] of 73%.

`CN(C)CCN(C)Cc1nnc(Cn2c(SCc3ccc(F)cc3)nc(=O)c3c2CCC3)n1Cc1ccc(-c2ccc(C(F)(F)F)cc2)cc1` yielded an inhibition in the experiment filed under Oryctolagus cuniculus [1] of 77%.

In turn, `CC(c1nnc(Cn2c(SCc3ccc(F)cc3)nc(=O)c3c2CCC3)n1Cc1ccc(-c2ccc(C(F)(F)F)cc2)cc1)N(C)CCCN(C)C` (configuration not stated) gave an inhibition in the experiment filed under Oryctolagus cuniculus [1] of 71%.

As to `O=c1nc(SCc2ccc(F)cc2)n(Cc2nnc(CCCN3CCCC3)n2Cc2ccc(-c3ccc(C(F)(F)F)cc3)cc2)c2c1CCC2`, the inhibition in the experiment listed under Oryctolagus cuniculus [1] came to 75%; in the experiment listed under Oryctolagus cuniculus [2], 97%.
